Assays:
[1] = target: Muscarinic acetylcholine receptor M3 (Homo sapiens, UniProt P20309)
[2] = target: Voltage-gated inwardly rectifying potassium channel KCNH2 (Homo sapiens, UniProt Q12809); assay type: functional
[3] = target: Beta-2 adrenergic receptor (Homo sapiens, UniProt P07550)
Adenosine receptor A3 = target: T1, Adenosine receptor A3 (Homo sapiens, UniProt P0DMS8)
T1 sequence (P0DMS8 whole entry): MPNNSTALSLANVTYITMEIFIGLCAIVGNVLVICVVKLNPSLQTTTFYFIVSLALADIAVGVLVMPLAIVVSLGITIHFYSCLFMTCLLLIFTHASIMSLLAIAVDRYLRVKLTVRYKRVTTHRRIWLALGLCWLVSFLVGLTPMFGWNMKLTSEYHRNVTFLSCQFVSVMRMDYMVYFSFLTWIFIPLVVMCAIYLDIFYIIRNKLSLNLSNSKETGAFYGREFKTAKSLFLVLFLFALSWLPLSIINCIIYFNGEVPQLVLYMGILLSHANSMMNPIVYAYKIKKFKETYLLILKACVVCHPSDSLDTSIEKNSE

Progesterone receptor = target: T2, Progesterone receptor (Homo sapiens, UniProt P06401); assay type: functional
T2 sequence (P06401 whole entry): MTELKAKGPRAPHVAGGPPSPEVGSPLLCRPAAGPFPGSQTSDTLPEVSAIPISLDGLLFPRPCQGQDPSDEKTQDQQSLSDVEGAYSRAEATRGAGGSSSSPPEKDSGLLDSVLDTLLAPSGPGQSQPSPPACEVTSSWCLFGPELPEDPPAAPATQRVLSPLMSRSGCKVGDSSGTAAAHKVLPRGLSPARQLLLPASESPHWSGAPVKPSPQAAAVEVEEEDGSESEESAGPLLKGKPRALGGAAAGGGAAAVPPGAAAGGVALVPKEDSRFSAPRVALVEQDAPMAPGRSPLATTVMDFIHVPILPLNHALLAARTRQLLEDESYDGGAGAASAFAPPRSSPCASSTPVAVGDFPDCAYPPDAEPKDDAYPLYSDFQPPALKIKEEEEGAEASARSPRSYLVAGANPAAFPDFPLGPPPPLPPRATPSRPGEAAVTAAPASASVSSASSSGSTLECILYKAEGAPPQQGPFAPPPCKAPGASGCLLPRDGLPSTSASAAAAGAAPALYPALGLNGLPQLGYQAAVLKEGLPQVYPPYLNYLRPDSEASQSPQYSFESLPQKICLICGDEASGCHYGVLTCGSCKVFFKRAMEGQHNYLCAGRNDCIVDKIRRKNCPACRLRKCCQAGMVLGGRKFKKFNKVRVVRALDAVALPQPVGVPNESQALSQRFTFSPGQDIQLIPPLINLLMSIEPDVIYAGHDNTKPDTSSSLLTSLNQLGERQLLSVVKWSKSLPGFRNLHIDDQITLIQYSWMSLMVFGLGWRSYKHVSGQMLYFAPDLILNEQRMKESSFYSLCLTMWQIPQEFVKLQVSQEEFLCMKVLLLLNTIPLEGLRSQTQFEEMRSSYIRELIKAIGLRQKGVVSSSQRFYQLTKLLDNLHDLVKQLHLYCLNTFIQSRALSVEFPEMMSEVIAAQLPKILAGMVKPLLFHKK

Thromboxane A2 receptor = target: T3, Thromboxane A2 receptor (Homo sapiens, UniProt P21731)
T3 sequence (P21731 whole entry): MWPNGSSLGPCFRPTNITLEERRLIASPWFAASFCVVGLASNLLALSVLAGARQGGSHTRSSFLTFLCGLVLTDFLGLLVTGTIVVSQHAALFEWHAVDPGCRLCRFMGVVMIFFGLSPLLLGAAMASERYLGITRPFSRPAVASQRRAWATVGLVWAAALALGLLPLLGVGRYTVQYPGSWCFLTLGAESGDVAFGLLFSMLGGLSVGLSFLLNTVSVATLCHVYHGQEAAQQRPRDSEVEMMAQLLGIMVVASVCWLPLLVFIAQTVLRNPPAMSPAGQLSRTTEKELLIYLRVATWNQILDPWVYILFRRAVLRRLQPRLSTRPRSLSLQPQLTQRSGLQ

[4] = target: Gamma-aminobutyric acid receptor subunit alpha-1 (Rattus norvegicus, UniProt P62813)
Histamine H3 receptor = Histamine H3 receptor (Homo sapiens, UniProt Q9Y5N1)
[5] = target: T4, Prostaglandin G/H synthase 1 (Rattus norvegicus, UniProt Q63921); assay type: functional
T4 sequence (Q63921 whole entry): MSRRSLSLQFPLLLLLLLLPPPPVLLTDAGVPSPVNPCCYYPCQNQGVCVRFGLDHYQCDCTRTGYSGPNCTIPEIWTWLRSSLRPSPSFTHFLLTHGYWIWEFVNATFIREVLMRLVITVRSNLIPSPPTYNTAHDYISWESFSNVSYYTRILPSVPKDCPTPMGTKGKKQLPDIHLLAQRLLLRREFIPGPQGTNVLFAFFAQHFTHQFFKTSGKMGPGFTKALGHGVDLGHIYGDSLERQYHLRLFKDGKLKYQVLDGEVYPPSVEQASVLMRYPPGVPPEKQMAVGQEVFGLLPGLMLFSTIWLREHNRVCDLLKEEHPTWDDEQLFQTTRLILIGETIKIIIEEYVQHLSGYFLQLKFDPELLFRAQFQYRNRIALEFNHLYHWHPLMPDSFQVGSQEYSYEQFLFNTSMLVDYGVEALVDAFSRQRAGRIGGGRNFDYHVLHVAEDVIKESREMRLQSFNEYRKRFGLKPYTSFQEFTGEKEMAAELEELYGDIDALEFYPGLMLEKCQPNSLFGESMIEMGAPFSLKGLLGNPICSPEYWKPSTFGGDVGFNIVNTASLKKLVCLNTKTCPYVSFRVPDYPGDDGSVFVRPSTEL

Endothelin-1 receptor = target: T5, Endothelin-1 receptor (Homo sapiens, UniProt P25101)
T5 sequence (P25101 whole entry): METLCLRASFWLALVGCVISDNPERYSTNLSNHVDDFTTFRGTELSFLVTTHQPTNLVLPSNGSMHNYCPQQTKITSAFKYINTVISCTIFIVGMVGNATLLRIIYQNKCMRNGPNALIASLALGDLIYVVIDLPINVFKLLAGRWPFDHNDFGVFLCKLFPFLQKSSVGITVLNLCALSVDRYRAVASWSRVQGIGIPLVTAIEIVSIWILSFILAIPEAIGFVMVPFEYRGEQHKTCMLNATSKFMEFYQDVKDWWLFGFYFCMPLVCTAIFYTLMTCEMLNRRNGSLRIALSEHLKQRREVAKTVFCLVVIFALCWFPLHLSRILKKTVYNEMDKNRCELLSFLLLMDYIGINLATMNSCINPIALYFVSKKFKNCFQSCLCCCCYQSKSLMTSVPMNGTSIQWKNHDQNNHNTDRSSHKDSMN
Note: assay procedure not described here.

Sequence of Voltage-gated inwardly rectifying potassium channel KCNH2 (Q12809 whole entry): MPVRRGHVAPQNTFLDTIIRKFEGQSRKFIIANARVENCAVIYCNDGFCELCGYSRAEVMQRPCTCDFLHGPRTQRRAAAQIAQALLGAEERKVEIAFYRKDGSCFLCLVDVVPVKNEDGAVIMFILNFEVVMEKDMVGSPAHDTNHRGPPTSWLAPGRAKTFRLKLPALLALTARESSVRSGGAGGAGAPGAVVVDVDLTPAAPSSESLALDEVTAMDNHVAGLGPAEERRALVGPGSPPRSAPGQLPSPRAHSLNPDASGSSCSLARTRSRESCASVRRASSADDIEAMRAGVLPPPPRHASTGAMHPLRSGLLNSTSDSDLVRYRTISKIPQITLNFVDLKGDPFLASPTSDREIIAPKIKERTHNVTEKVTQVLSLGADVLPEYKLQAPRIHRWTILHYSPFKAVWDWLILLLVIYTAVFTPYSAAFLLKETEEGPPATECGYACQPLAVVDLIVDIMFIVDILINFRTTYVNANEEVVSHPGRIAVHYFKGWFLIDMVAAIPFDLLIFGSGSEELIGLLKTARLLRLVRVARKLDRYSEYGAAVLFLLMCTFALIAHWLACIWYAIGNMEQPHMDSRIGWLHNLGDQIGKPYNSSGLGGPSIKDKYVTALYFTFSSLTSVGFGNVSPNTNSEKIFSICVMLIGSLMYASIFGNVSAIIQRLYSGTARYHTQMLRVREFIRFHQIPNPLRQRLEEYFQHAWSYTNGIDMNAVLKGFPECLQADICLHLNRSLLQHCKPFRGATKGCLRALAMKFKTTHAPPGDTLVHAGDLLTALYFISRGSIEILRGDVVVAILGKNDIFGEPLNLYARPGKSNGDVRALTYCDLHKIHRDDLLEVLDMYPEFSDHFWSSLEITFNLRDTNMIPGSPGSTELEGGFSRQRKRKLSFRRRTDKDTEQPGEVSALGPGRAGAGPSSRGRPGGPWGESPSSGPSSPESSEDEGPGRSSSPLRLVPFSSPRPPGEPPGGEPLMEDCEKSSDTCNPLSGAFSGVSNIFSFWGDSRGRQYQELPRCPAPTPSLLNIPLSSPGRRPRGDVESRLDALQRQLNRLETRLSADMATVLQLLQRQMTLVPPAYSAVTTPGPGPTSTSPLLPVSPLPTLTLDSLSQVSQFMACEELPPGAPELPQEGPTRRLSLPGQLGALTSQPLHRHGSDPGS
Sequence of Histamine H3 receptor (Q9Y5N1 whole entry): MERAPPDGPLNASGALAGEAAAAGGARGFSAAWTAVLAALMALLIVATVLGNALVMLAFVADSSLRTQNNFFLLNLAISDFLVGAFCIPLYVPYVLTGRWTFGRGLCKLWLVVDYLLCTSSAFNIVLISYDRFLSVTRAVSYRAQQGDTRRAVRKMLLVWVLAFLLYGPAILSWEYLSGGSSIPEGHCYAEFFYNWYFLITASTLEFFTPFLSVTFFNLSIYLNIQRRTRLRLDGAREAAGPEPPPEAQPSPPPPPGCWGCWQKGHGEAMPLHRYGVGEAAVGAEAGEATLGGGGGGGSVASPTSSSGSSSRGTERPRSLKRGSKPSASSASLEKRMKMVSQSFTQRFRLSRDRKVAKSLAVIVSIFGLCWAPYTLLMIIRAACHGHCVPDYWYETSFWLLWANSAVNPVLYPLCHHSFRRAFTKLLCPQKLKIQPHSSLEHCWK
Sequence of Muscarinic acetylcholine receptor M3 (P20309 whole entry): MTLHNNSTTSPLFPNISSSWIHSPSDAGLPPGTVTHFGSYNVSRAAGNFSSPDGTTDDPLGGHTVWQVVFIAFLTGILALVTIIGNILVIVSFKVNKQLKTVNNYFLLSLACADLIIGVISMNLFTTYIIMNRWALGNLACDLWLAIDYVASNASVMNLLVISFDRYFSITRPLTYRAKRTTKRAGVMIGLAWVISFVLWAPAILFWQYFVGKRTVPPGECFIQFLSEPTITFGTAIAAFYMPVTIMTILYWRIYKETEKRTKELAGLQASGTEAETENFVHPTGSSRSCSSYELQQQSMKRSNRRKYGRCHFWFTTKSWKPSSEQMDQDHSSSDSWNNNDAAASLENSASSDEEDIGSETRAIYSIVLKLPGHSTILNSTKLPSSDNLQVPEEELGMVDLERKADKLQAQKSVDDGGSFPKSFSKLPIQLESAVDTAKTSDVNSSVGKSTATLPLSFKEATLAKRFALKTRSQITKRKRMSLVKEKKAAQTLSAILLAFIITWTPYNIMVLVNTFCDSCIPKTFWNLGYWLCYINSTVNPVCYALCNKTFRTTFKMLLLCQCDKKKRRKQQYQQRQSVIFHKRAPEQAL
Sequence of Gamma-aminobutyric acid receptor subunit alpha-1 (P62813 whole entry): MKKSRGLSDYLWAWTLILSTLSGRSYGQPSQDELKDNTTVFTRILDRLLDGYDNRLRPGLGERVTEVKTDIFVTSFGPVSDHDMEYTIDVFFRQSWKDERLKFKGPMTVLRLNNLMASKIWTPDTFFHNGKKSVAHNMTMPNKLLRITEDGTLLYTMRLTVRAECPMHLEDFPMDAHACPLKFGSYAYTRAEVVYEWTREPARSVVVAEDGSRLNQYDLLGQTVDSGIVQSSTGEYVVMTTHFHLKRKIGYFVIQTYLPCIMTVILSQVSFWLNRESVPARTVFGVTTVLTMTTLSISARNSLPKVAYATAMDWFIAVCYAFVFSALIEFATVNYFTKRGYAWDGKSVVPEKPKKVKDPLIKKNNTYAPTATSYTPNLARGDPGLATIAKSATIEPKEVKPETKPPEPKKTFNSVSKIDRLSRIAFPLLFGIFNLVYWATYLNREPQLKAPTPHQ

Compound	AC50 [1]	AC50 ([2]; read-out: AC50)	AC50 [3]	AC50 (Adenosine receptor A3)	AC50 (Progesterone receptor)	AC50 (Thromboxane A2 receptor)	AC50 [4]	AC50 (Histamine H3 receptor)	AC50 [5]	AC50 (Endothelin-1 receptor)	AC50 ([2]; human, cellular components)
OCC(O)COc1ccc(Cl)cc1 (configuration not stated)	> 30 µM	> 30 µM	> 10 µM	> 10 µM	> 10 µM	> 10 µM	> 10 µM	> 10 µM	> 10 µM	–	–
C[C@@H](Cc1ccccc1)N(C)Cc1ccccc1 [BENZPHETAMINE]	> 30 µM	14.5 µM	> 10 µM	> 10 µM	> 10 µM	> 10 µM	> 10 µM	> 10 µM	> 10 µM	–	–
O=C(O)CCCC[C@@H]1SC[C@@H]2NC(=O)N[C@@H]21 [BIOTIN]	> 30 µM	> 30 µM	–	> 10 µM	–	> 10 µM	–	–	> 10 µM	–	–
CC(NC(C)(C)C)C(=O)c1cccc(Cl)c1 (configuration not stated) [BUPROPION]	–	–	> 10 µM	> 30 µM	–	> 30 µM	–	> 10 µM	–	> 30 µM	–
CC(=O)OCC1=C(C(=O)O)N2C(=O)[C@@H](NC(=O)CSc3ccncc3)[C@H]2SC1 [CEPHAPIRIN]	> 30 µM	> 30 µM	> 10 µM	> 10 µM	> 30 µM	> 10 µM	> 10 µM	–	> 10 µM	–	–
Nc1nc(Cl)nc2c1ncn2[C@@H]1O[C@H](CO)[C@@H](O)[C@@H]1F [CLOFARABINE]	> 30 µM	> 30 µM	> 30 µM	18.2 µM	> 30 µM	> 30 µM	> 10 µM	> 30 µM	> 30 µM	–	–
C=C(c1ccccc1OCc1cccc(Cl)c1)n1ccnc1 [CROCONAZOLE]	> 30 µM	4.97 µM	> 30 µM	11.5 µM	> 30 µM	16.2 µM	> 10 µM	> 10 µM	21.1 µM	–	–
CN(C)CCOC(=O)C(c1ccccc1)C1(O)CCCC1 (configuration not stated) [CYCLOPENTOLATE]	0.04 µM	> 30 µM	> 10 µM	> 10 µM	> 10 µM	> 10 µM	> 10 µM	–	> 10 µM	–	–
COC(=O)[C@H]1[C@H]2C[C@@H]3c4[nH]c5ccccc5c4CCN3C[C@H]2C[C@@H](OC(=O)c2cc(OC)c(OC)c(OC)c2)[C@@H]1OC [DESERPIDINE]	> 30 µM	2.45 µM	> 10 µM	15.8 µM	> 30 µM	> 30 µM	> 10 µM	–	34.3 µM	–	–
Cc1cnc(Nc2ccc(OCCN3CCCC3)cc2)nc1Nc1cccc(S(=O)(=O)NC(C)(C)C)c1 [FEDRATINIB]	5.7 µM	0.82 µM	> 10 µM	6.83 µM	–	> 30 µM	> 10 µM	3.9 µM	> 30 µM	–	–
CN1C2CCCC1CC(NC(=O)c1nn(C)c3ccccc13)C2 (configuration not stated) [GRANISETRON]	–	–	> 10 µM	> 30 µM	–	> 30 µM	> 10 µM	> 10 µM	> 30 µM	> 30 µM	–
O=C(C[S+]([O-])Cc1ccco1)NC/C=C\COc1cc(CN2CCCCC2)ccn1 (configuration not stated) [LAFUTIDINE]	> 30 µM	> 30 µM	> 10 µM	> 10 µM	> 10 µM	> 10 µM	> 10 µM	> 10 µM	> 10 µM	–	–
CCN(CC)CC(=O)Nc1c(C)cccc1C [LIDOCAINE]	–	–	–	> 30 µM	–	> 30 µM	–	–	> 30 µM	> 30 µM	–
CCC1(CC)C(=O)NC(=O)N(C)C1=O [METHARBITAL]	> 30 µM	> 30 µM	> 10 µM	> 10 µM	> 10 µM	> 10 µM	> 10 µM	> 10 µM	> 10 µM	–	–
COc1nc(C)nc(Cl)c1N=C1NCCN1 [MOXONIDINE]	–	> 30 µM	–	> 30 µM	> 30 µM	> 30 µM	> 30 µM	> 30 µM	> 30 µM	> 30 µM	–
CCOC(=O)O[C@]1(C(=O)COC(=O)CC)CC[C@H]2[C@@H]3CCC4=CC(=O)C=C[C@]4(C)[C@H]3[C@@H](O)C[C@@]21C [PREDNICARBATE]	> 30 µM	> 30 µM	> 10 µM	> 10 µM	1.3 µM	> 10 µM	> 10 µM	–	> 10 µM	–	–
CCC(=O)[C@@]1(C)[C@H](C)C[C@H]2[C@@H]3CCC4=CC(=O)C=C[C@]4(C)[C@H]3[C@@H](O)C[C@@]21C [RIMEXOLONE]	> 30 µM	> 30 µM	> 10 µM	> 10 µM	0.0032 µM	> 10 µM	> 10 µM	–	> 10 µM	–	–
CC(C(=O)O)c1ccc(C(=O)c2ccccc2)s1 (configuration not stated) [TIAPROFENIC ACID]	> 30 µM	9.26 µM	> 10 µM	> 10 µM	> 10 µM	> 10 µM	> 10 µM	> 10 µM	0.365 µM	–	–
OCC(CO)N[C@H]1C[C@](O)(CO)[C@@H](O)[C@H](O)[C@H]1O [VOGLIBOSE]	> 30 µM	> 30 µM	> 30 µM	> 30 µM	> 30 µM	> 30 µM	> 30 µM	> 30 µM	> 30 µM	–	–
TEPRENONE	> 30 µM	–	> 30 µM	> 30 µM	–	> 30 µM	> 10 µM	> 10 µM	16.1 µM	–	> 30 µM

Source: ChEMBL document CHEMBL5291721, “A preclinical secondary pharmacology resource illuminates target-adverse drug reaction associations of marketed drugs” (Nat Commun, 2023)
